{"source": "patent US9629861B2", "about": "“Compositions and methods for treating bacterial infections using ceftaroline” (Forest Laboratories Holdings Limited, priority 2009, dated 2017)", "key": {"CYP2C19": {"target": "T1, CYP2C19 (Homo sapiens, UniProt P33261)", "T1 construct": "In vitro studies in human liver microsomes; from tissue; host or cells: human liver microsomes", "T1 sequence (P33261 whole entry)": "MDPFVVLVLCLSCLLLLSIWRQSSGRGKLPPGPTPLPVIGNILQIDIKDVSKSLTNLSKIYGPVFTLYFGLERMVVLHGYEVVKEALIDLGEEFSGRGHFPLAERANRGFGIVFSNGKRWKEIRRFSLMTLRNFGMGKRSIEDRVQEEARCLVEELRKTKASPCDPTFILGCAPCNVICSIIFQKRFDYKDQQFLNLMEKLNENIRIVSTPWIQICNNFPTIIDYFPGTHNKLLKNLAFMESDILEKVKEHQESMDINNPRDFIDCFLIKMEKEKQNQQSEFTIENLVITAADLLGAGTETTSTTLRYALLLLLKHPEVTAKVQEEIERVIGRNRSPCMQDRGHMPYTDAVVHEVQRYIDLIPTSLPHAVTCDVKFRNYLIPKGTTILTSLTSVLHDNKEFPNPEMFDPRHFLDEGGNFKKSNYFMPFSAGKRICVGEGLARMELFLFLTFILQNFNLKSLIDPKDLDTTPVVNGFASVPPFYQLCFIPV", "assay": "CYP inhibition in human liver microsomes", "format": "in vitro ADME"}, "[1]": {"test_system": "Community-Acquired Bacterial Pneumonia (CABP)", "assay": "Phase 3 CABP Study 1 (Example 5, adjunctive clarithromycin)", "format": "in vivo, human", "conditions": "for Clinical Cure Rate at TOC / Treatment Difference in clinical cure rate at TOC: CABP Study 1; for Difference, clinical cure rate at EOT / Difference, favorable microbiological outcome at TOC: ceftaroline minus ceftriaxone, Example 5; for Treatment Difference in clinical cure rate at TOC: versus ceftriaxone", "description": "(§1) In both treatment groups of CABP Study 1, two doses of oral clarithromycin (500 mg q12h), were administered as adjunctive therapy starting on Study Day 1. No adjunctive macrolide therapy was used in CABP Study 2. Patients with new or progressive pulmonary infiltrate(s) on chest radiography and clinical signs and symptoms consistent with CABP with the need for hospitalization and IV therapy were enrolled in the studies. Treatment duration was 5 to 7 days. A switch to oral therapy was not allowed. The Modified Intent-to-Treat Efficacy (MITTE) population included all patients who received any amount of study drug according to their randomized treatment group and were in PORT (Pneumonia Outcomes Research Team) Risk Class III or IV.\n(§2) The primary efficacy endpoint was the clinical response at the Test of Cure (TOC) visit in the co-primary CE and MITTE populations (Table 4).\n(§3) The secondary objective of the study was to evaluate the following: the clinical response at end-of-therapy (EOT); the microbiological favorable outcome rate at TOC; the overall (clinical and radiographic) success rate at TOC; the clinical and microbiological response by pathogen at TOC; clinical relapse at late follow-up (LFU); microbiological reinfection/recurrence at LFU; and safety.\n(§4) The primary efficacy outcome measures were the per-subject clinical cure rate at TOC in the CE and MITTE Populations. Subjects were considered clinically cured at TOC if they had total resolution of all signs and symptoms of the baseline infection, or improvement of the infection such that no further antimicrobial therapy was necessary.\n(§5) Non-inferiority was concluded if the lower limit of the 95% CI was higher than −10%."}, "[2]": {"assay": "Pharmacokinetics in adolescent patients", "format": "in vivo, human", "conditions": "adolescents 12 to 17; 8 mg/kg ceftaroline fosamil (or 600 mg if >75 kg)", "protocol": "The pharmacokinetics of ceftaroline were evaluated in adolescent patients (ages 12 to 17) with normal renal function."}, "CYP2E1": {"target": "T2, CYP2E1 (Homo sapiens, UniProt P05181)", "T2 construct": "In vitro studies in human liver microsomes; from tissue; host or cells: human liver microsomes", "T2 sequence (P05181 whole entry)": "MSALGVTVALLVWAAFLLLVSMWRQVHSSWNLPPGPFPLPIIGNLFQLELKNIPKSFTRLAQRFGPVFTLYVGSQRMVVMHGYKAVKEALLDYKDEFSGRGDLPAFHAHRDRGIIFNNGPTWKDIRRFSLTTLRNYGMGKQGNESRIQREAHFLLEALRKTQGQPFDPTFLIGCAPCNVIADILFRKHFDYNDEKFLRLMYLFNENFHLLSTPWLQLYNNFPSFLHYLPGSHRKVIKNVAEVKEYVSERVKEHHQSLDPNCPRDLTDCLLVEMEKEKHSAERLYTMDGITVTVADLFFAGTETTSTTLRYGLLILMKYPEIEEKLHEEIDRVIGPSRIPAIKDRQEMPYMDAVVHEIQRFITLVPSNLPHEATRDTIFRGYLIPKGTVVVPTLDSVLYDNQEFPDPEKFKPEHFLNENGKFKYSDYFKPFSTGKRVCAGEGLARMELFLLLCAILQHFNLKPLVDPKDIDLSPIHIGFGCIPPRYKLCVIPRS", "assay": "CYP inhibition in human liver microsomes", "format": "in vitro ADME"}, "CYP2D6": {"target": "T3, CYP2D6 (Homo sapiens, UniProt P10635)", "T3 construct": "In vitro studies in human liver microsomes; from tissue; host or cells: human liver microsomes", "T3 sequence (P10635 whole entry)": "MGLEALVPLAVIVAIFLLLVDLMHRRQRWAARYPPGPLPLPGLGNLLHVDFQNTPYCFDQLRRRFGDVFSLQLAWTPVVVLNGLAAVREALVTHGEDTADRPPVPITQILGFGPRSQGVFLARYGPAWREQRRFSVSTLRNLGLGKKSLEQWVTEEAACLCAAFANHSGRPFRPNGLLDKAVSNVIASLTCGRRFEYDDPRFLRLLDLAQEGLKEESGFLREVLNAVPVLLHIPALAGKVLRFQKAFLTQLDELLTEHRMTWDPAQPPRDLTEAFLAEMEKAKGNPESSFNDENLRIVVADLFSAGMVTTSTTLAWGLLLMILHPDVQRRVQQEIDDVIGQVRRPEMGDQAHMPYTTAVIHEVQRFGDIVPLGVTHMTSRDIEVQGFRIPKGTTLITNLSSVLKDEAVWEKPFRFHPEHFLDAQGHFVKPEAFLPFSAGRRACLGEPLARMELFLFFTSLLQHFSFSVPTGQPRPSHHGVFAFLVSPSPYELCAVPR", "assay": "CYP inhibition in human liver microsomes", "format": "in vitro ADME"}, "[3]": {"conditions": "human, in vivo"}, "CYP2B6": {"test_system": "CYP2B6", "assay": "CYP induction in human hepatocytes", "format": "in vitro ADME"}, "CYP2C8": {"test_system": "CYP2C8", "conditions": "human hepatocytes"}, "CYP1A2": {"target": "CYP1A2 (Homo sapiens, UniProt P05177)", "sequence (P05177 whole entry)": "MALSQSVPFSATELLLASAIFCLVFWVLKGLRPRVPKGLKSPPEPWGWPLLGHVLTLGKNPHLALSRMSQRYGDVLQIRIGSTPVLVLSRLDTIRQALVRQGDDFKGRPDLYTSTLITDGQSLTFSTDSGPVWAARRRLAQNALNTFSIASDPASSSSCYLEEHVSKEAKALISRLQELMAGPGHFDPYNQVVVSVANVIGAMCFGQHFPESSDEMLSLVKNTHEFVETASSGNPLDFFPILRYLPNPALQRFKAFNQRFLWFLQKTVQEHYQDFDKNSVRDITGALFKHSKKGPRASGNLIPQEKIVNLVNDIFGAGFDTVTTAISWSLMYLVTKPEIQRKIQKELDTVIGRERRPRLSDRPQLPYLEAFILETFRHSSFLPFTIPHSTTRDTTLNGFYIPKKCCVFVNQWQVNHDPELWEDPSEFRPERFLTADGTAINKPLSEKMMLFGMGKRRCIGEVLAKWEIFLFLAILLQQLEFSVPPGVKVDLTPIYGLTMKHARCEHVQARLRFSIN", "format": "in vitro ADME", "conditions": "human liver microsomes"}, "K. pneumoniae": {"test_system": "K. pneumoniae", "assay": "Example 4 CAP study, outcome by baseline pathogen", "format": "in vivo, Klebsiella pneumoniae", "text": "(§6) Per-pathogen clinical cure rate and favorable microbiological outcome rate at TOC in the mMITTE and ME Populations;"}, "H. parainfluenzae": {"test_system": "H. parainfluenzae", "assay": "Example 5 CAP study, outcome by baseline pathogen", "format": "in vivo, Haemophilus parainfluenzae", "text": "as §6"}, "[4]": {"test_system": "complicated skin and skin structure infections (cSSSI)", "assay": "Two Phase 3 studies in cSSSI, integrated", "format": "in vivo, human", "conditions": "co-primary CE and MITT populations", "description": "A total of 1396 adults with clinically documented complicated skin and skin structure infections (cSSSI) were enrolled in two randomized, multi-center, multinational, double-blind, studies comparing 600 mg ceftaroline fosamil administered intravenously over 1 hour every 12 hours to vancomycin plus aztreonam [1 g vancomycin administered intravenously over 1 hour followed by 1 g aztreonam administered intravenously over 1 hour every 12 hours]. Patients with cSSSI (deep/extensive cellulitis, a major abscess, a wound infection [surgical or traumatic], infected insect bites, burns or ulcers, lower extremity infection in patients with diabetes mellitus or peripheral vascular disease), were enrolled in the studies. Treatment duration was 5 to 14 days. A switch to oral therapy was not allowed. The Modified Intent-to-Treat (MITT) population included all patients who received any amount of study drug according to their randomized treatment group.\nThe primary efficacy endpoint was clinical response at the Test of Cure (TOC) visit in the co-primary CE and MITT populations (Table 2). […] In a subgroup analysis (CE population), the comparative clinical cure rates between the ceftaroline group and the vancomycin plus aztreonam group were not affected by age, gender, race, ethnicity, or weight."}, "[5]": {"test_system": "Community-Acquired Bacterial Pneumonia (CABP)", "assay": "Phase 3 CABP Study 2 (Example 4, no adjunctive macrolide)", "format": "in vivo, human", "conditions": "for Clinical Cure Rate at TOC / Treatment Difference in clinical cure rate at TOC: CABP Study 2; for Difference, clinical cure rate at EOT / Difference, favorable microbiological outcome at TOC: ceftaroline minus ceftriaxone, Example 4; for Treatment Difference in clinical cure rate at TOC: versus ceftriaxone", "description": "as §1, §2\nas §3, with “objectives” for “objective”, “were” for “was”, “following:” for “following: the”\nas §4, with “The following criteria were used for evaluation: The primary” for “The primary”, “rate at test-of-cure (TOC) in the” for “rate at TOC in the”\nas §5"}}, "data": [{"compound": "CCO/N=C(\\C(=O)N[C@@H]1C(=O)N2C(C(=O)[O-])=C(Sc3nc(-c4cc[n+](C)cc4)cs3)CS[C@H]12)c1nsc(N)n1", "note": "[Ceftaroline]", "values": [{"measurement": "inhibition of CYP2C19", "setting": "CYP2C19", "result": "neither ceftaroline fosamil nor ceftaroline inhibits"}, {"measurement": "Clinical Cure Rate at TOC", "setting": "[1]; CE population", "result": "194 (86.6) %"}, {"measurement": "Clinical Cure Rate at TOC", "setting": "[1]; MITTE population", "result": "244 (83.8) %"}, {"measurement": "Difference, clinical cure rate at EOT", "setting": "[1]; CE", "result": 7.6, "unit": "%"}, {"measurement": "Difference, favorable microbiological outcome at TOC", "setting": "[1]; ME", "result": 11.0, "unit": "%"}, {"measurement": "Difference, clinical cure rate at EOT", "setting": "[1]; MITTE", "result": 6.3, "unit": "%"}, {"measurement": "Difference, favorable microbiological outcome at TOC", "setting": "[1]; mMITTE", "result": 9.3, "unit": "%"}, {"measurement": "Treatment Difference in clinical cure rate at TOC", "setting": "[1]; CE", "result": 8.4, "unit": "%"}, {"measurement": "Treatment Difference in clinical cure rate at TOC", "setting": "[1]; MITTE", "result": 6.2, "unit": "%"}, {"measurement": "mean AUC less than in adult subjects after 600 mg", "setting": "[2]", "result": "~23", "unit": "%"}, {"measurement": "mean Cmax less than in adult subjects after 600 mg", "setting": "[2]", "result": "about 10%"}, {"measurement": "inhibition of CYP2E1", "setting": "CYP2E1", "result": "neither ceftaroline fosamil nor ceftaroline inhibits"}, {"measurement": "inhibition of CYP2D6", "setting": "CYP2D6", "result": "neither ceftaroline fosamil nor ceftaroline inhibits"}, {"measurement": "AUC higher in female than in male subjects", "setting": "[3]", "result": "6-15%"}, {"measurement": "Cmax higher in female than in male subjects", "setting": "[3]", "result": "17-22%"}, {"measurement": "induction of CYP2B6", "setting": "CYP2B6", "result": "not inducers"}, {"measurement": "induction of CYP2C8", "setting": "CYP2C8", "result": "not inducers"}, {"measurement": "inhibition of CYP1A2", "setting": "CYP1A2", "result": "neither ceftaroline fosamil nor ceftaroline inhibits"}, {"measurement": "Favorable Microbiological Outcome at TOC by Baseline Pathogen", "setting": "K. pneumoniae; ME", "result": "6/6 (100.0) %"}, {"measurement": "Clinical Cure Rate at the TOC Visit by Baseline Pathogen", "setting": "K. pneumoniae; ME population", "result": "6/6 (100.0) %"}, {"measurement": "Favorable Microbiological Outcome at TOC by Baseline Pathogen", "setting": "H. parainfluenzae; ME", "result": "7/7 (100.0) %"}, {"measurement": "Clinical Cure Rate at the TOC Visit by Baseline Pathogen", "setting": "H. parainfluenzae; ME population", "result": "7/7 (100.0) %"}, {"measurement": "clinical response at TOC compared with vancomycin plus aztreonam", "setting": "[4]", "result": "non-inferior"}, {"measurement": "Clinical Cure Rate at TOC", "setting": "[5]; CE population", "result": "193 (82.1) %"}, {"measurement": "Clinical Cure Rate at TOC", "setting": "[5]; MITTE population", "result": "235 (81.3) %"}, {"measurement": "Difference, clinical cure rate at EOT", "setting": "[5]; CE", "result": 6.0, "unit": "%"}, {"measurement": "Difference, favorable microbiological outcome at TOC", "setting": "[5]; ME", "result": 1.8, "unit": "%"}, {"measurement": "Difference, clinical cure rate at EOT", "setting": "[5]; MITTE", "result": 7.4, "unit": "%"}, {"measurement": "Difference, favorable microbiological outcome at TOC", "setting": "[5]; mMITTE", "result": 0.4, "unit": "%"}, {"measurement": "Treatment Difference in clinical cure rate at TOC", "setting": "[5]; CE", "result": 4.9, "unit": "%"}, {"measurement": "Treatment Difference in clinical cure rate at TOC", "setting": "[5]; MITTE", "result": 5.9, "unit": "%"}]}]}
